This is an account of results in ChEMBL document CHEMBL6109044, “From challenges to solutions: A review of fourth-generation EGFR tyrosine kinase inhibitors to overcome the C797S triple mutation in non-small cell lung cancer” (Eur J Med Chem, 2025).

Some results are limits rather than exact numbers.

For assay [1], the target named is Epidermal growth factor receptor (Homo sapiens, UniProt P00533, C797S/EX19DEL/T790M). The experiment in a line: Inhibition of EGFR Del19/T790M/C797S triple mutant (unknown origin).
Chain of Epidermal growth factor receptor (Homo sapiens, UniProt P00533, C797S/EX19DEL/T790M) (P00533 whole entry, looked up, stated change not applied): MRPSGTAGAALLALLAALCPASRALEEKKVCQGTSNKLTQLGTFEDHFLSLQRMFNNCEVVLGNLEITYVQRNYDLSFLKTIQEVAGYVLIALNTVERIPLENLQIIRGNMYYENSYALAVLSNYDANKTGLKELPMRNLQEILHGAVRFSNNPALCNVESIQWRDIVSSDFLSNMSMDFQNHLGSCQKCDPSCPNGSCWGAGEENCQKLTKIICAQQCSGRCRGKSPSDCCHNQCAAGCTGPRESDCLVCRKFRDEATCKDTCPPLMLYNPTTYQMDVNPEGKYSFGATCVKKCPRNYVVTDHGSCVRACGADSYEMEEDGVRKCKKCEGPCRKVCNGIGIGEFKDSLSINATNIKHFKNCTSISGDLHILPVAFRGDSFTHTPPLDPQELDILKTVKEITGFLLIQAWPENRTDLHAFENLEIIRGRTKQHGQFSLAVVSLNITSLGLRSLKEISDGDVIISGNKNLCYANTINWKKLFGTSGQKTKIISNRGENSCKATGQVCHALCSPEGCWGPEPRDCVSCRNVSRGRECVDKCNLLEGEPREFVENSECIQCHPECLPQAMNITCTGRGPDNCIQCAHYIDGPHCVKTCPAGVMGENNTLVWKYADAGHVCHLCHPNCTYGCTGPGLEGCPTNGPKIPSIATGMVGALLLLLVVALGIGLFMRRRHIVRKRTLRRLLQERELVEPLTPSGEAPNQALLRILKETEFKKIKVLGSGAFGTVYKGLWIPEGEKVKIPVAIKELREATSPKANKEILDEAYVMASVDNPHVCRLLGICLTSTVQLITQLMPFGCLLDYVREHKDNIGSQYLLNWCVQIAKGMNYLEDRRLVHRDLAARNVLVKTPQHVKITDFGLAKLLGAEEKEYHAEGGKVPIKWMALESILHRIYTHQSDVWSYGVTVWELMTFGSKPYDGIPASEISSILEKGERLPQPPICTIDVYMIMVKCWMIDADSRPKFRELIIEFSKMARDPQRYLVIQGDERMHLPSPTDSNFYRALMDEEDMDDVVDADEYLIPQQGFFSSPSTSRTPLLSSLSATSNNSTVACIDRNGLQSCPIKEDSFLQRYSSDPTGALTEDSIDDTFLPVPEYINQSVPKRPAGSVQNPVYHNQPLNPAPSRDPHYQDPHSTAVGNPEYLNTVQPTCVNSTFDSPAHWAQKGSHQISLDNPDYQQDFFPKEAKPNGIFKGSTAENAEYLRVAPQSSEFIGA
The target of assay [2] is T1, Epidermal growth factor receptor (Homo sapiens, UniProt P00533, C797S/L858R/T790M). Kind of assay: Inhibition of EGFR L858R/T790M/C797S triple mutant (unknown origin).
T1 sequence (P00533 25-1210 T790M/C797S/L858R limits assumed): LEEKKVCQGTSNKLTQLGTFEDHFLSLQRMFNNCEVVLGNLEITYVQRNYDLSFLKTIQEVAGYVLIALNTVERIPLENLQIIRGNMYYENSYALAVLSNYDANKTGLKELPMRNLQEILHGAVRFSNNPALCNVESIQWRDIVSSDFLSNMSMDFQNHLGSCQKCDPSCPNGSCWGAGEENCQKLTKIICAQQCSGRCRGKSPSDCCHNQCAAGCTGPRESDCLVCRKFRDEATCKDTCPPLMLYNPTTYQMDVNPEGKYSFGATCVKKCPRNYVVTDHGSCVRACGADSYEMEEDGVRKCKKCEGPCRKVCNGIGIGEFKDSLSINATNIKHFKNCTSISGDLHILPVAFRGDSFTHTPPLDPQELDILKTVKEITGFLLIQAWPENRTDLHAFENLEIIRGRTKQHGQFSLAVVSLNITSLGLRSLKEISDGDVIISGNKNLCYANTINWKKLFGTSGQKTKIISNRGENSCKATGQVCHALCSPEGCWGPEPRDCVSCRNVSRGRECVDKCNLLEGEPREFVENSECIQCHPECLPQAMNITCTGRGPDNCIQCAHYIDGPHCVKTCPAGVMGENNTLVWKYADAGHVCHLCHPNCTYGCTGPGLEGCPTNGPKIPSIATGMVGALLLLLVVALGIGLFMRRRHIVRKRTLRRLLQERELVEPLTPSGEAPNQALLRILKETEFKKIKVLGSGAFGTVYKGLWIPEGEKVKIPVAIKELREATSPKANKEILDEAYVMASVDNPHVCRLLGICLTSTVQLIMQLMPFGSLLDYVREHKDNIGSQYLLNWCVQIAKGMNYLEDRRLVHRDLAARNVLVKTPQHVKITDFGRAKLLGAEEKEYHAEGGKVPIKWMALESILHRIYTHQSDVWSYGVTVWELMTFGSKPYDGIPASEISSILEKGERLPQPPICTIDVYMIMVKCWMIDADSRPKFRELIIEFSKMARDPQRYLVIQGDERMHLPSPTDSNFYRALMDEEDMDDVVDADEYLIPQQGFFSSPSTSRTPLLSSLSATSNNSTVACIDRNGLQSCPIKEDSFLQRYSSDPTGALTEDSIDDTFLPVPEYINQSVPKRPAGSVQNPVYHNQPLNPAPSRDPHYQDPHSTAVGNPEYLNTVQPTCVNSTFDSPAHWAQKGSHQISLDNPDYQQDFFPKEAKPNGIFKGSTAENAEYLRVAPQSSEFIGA
Assay [3] concerns the target T2, Epidermal growth factor receptor (Homo sapiens, UniProt P00533). Kind of assay: Inhibition of wild type EGFR (unknown origin).
Assay [4] relates to Epidermal growth factor receptor (Homo sapiens), P00533 [L858R,T790M,C797S]. The settings on record: dose 1.0 nM.
Chain of Epidermal growth factor receptor (Homo sapiens), P00533 [L858R,T790M,C797S] (P00533 whole entry T790M/C797S/L858R): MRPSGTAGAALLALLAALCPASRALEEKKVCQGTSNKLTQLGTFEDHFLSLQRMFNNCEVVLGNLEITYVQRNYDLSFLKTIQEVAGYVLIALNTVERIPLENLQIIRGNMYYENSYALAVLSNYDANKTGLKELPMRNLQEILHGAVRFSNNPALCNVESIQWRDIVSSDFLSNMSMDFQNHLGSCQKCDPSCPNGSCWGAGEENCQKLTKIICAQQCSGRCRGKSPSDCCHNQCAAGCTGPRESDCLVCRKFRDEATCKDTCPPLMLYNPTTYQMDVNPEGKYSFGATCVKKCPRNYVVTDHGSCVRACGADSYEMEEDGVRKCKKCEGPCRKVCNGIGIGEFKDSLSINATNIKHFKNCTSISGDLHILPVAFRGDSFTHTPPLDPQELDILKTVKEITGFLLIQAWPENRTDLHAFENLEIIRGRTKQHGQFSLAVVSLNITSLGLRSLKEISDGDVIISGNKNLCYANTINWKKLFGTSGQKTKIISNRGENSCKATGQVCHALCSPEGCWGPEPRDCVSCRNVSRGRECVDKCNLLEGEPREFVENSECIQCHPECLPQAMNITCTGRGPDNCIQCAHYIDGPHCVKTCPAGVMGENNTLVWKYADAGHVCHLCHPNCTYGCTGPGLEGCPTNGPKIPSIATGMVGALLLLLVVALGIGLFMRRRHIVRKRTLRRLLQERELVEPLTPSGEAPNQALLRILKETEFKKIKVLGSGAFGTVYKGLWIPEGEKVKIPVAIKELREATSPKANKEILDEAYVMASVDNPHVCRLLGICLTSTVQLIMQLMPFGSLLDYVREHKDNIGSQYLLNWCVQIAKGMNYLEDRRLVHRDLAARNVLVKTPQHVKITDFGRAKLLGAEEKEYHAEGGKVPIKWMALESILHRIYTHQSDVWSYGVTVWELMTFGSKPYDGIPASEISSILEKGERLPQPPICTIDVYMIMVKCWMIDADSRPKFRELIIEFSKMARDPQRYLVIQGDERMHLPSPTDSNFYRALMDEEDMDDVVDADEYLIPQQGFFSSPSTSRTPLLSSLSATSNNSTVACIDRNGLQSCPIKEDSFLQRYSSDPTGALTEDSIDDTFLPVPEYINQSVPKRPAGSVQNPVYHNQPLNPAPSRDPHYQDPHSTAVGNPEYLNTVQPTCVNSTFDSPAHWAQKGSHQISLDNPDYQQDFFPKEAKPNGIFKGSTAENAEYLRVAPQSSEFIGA
Assay [5] has the same test system. The settings on record: dose 0.05 nM.
Assay [6] shares this test system. The settings on record: dose 200.0 nM, tested as the 2H-labelled form.
A short description of assay [7]: Antiproliferative activity against mouse Ba/F3 EGFR-T790M/C797S/L858R cells assessed as reduction in cell growth incubated for 72 hrs by CCK-8 assay. In kind it is functional, cell-based.
Assay [8] in a line: Antiproliferative activity against mouse Ba/F3 EGFR-Del19/T790M/C797S cells assessed as reduction in cell growth incubated for 72 hrs by CCK-8 assay. In kind it is functional, cell-based.
The nature of assay [9]: Antiproliferative activity against mouse Ba/F3 EGFR-Del19/T790M/C797S cells. In kind it is functional, cell-based.
A short description of assay [10]: Antiproliferative activity against mouse Ba/F3 EGFR cells. In kind it is functional, cell-based.
The test system of assay [11] is NIH3T3. Kind of assay: Antiproliferative activity against mouse NIH3T3 cells harboring EGFR del19/T790M/C797S assessed as reduction in cell growth measured for 4 to 7 days by CellTiter-Glo Luminescent assay. In kind it is functional, cell-based. Background: ATP-based viability assays read luminescence as a measure of living cells.
The subject of assay [12] is NIH3T3. Kind of assay: Antiproliferative activity against mouse NIH3T3 cells harboring EGFR L858R/T790M/C797S assessed as reduction in cell growth measured for 4 to 7 days by CellTiter-Glo Luminescent assay. In kind it is functional, cell-based.
Another assay is described as follows: cells. The settings on record: Mus musculus, Ba/F3 EGFR-T790M/C797S/L858R.
Assay [13] can be described thus: Antiproliferative activity against mouse Ba/F3 EGFR-Del19/T790M/C797S cells assessed as reduction in cell viability at 10 uM incubated for 72 hrs by MTT assay relative to control. In kind it is functional. A general note: Tetrazolium assays rely on reduction of a dye to a coloured formazan, in cell work by metabolically active cells.
The next assay relates to A549. Kind of assay: Antiproliferative activity against human A549 cells. In kind it is functional, cell-based.
Assay [14] deals with T1, Epidermal growth factor receptor. The experiment in a line: Inhibition of EGFR L858R/T790M/C797S triple mutant (unknown origin) at 20 nM relative to control.
Assay [15] deals with Epidermal growth factor receptor (Homo sapiens, UniProt P00533, L858R/T790M). Kind of assay: Inhibition of EGFR L858R/T790M double mutant (unknown origin).
A short description of assay [16]: Antiproliferative activity against human NCI-H1975 EGFR T790M/C797S/L858R cells. In kind it is functional, cell-based.
The target in assay [17] is T2, Epidermal growth factor receptor. Kind of assay: Inhibition of wild type EGFR (unknown origin) by HTRF assay.

T2 sequence (P00533 whole entry): as the sequence (P00533 whole entry, looked up, stated change not applied) above

Consider `COc1cc(N2CCC(N3CCN(C)CC3)CC2)ccc1Nc1ncc(Cl)c(Nc2ccccc2NS(C)(=O)=O)n1`, for which the IC50 (as a rule, the concentration needed to halve the response being measured) in [1] was 5 nM; in [2], 8 nM; in [3], 184 nM.
With `Cc1cc(Nc2ncc(Br)c(Nc3ccccc3NS(=O)(=O)C3CC3)n2)ccc1N1CCN(C)CC1`, the figures for the inhibition in assay [4] (tested as the 2H-labelled form), in assay [5] (tested as the 2H-labelled form) and in assay [6] were 86.9%, 59% and 99%, respectively.
As for `C=CC(=O)C1CCC[C@@H](n2nc(-c3ccc4ccccc4c3)c3c(N)ncnc32)C1` (stereo partly drawn), the IC50 is 88 nM in [2] and 16 nM in assay [3].
For `C=CC(=O)Nc1cc(Nc2nccc(-c3cn(C)c4ccccc34)n2)c(OC)cc1N(C)CCN(C)C` [OSIMERTINIB], the IC50 in [7] was 4140 nM; in assay [8], 3380 nM; in [9] it was > 1000 nM; in [10] it was 171 nM; in the assay with NIH3T3 [11] it was 1200 nM; in the assay on NIH3T3 [12] it was 2700 nM. In “cells”, the IC50 is > 1000 nM.
As to `Oc1ccccc1-c1nc(NCC2CCOC2)c2ccccc2n1` (stereo not drawn), the Activity in assay [13] is 91%.
Take `CN1CCN(c2ccc(Nc3ncc(Cl)c(Nc4ccccc4P(C)(C)=O)n3)cc2Br)CC1`: the 50% inhibitory concentration (IC50) stood at 90 nM in assay [7] and 120 nM in [8].
As for `CC(C)n1c2cc(Nc3ccnc(-c4cnn(S(=O)(=O)C5CC5)c4)n3)ncc2c2c(OCC(F)(F)F)cc(N3CCN(C)CC3)cc21`, the IC50 worked out at 0.92 nM in [3], 20 nM with NIH3T3 [11] and 45 nM in the assay with NIH3T3 [12].
For `[2H]C([2H])([2H])c1cc(Nc2ncc(Br)c(Nc3ccccc3NS(=O)(=O)C3CC3)n2)ccc1N1CCN(C([2H])([2H])[2H])CC1`, the figures for the IC50 (in assay [9]; in the assay with A549; in “cells”) were 12 nM, 957 nM and 16 nM, respectively. Besides, the inhibition (in general, the drop in the measured response relative to a control, in per cent) in assay [14] stood at 97.2%.
As to `CCC(=O)N[C@H]1CC[C@@H](N2C(=O)N(c3ccccc3Cl)Cc3cnc(Nc4ccc(N5CCN(C)CC5)c(C)c4)nc32)CC1`, the IC50 in assay [7] stood at 320 nM.
Turning to `N#Cc1ccc(O)c(-c2nc(NCc3cccnc3)c3ccccc3n2)c1`, in assay [3], the IC50 is > 50 nM.
Take `COc1cc(N2CCC(N3CCN(C)CC3)CC2)ccc1Nc1ncc(Cl)c(Nc2ccccc2P(C)(C)=O)n1` [BRIGATINIB]: the results for the IC50 (in [9]; in “cells”) were 139 nM and 15.6 nM, respectively. Moreover, the inhibition in [4] stood at 57%; in assay [5] it was 4.82%.
For the molecule `CCc1cc(Nc2ncc(Cl)c(Nc3ccc(C)c(C)c3P(C)(C)=O)n2)c(OC)cc1N1CC2(CCN(C)CC2)C1`, the values for the IC50 (in [9]; in [10]; in the assay “cells”) were 128 nM, > 1000 nM and 43.3 nM, respectively.
Consider `CN1CCC(c2ccc(-c3ccc4c(c3)C(=O)N(C(C(=O)Nc3nccs3)c3cc(F)ccc3O)C4)cc2)CC1` (stereo not drawn), for which the IC50 is 0.083 nM in assay [2] and 0.063 nM in assay [15].
Turning to `N#Cc1ccc(O)c(-c2nc(NCc3ncccn3)c3ccccc3n2)c1`, it took 1200 nM to reach half-maximal inhibition in assay [16] (IC50).
Take `CCC(=O)Nc1cccc(-c2c(-c3ccc(N4CCN(C)CC4)cc3)[nH]c3ncnc(OCC(C)C)c23)c1`: in assay [17], the IC50 was determined as 0.4 nM.
